# Experiments:
# [1] = system: healthy men; experiment: Study Compound 1-002: single ascending-dose (SAD) trial in healthy volunteers; assay type: in vivo, human
# Experimental: (§1) Three clinical studies have investigated the safety and tolerability of Compound 1 to date; conduct of 2 studies has completed and 1 study is ongoing. A double-blind, placebo-controlled, single ascending-dose study (SAD) (Compound 1-002) was conducted in healthy men. Subjects received single doses ranging from 1 mg to 48 mg. Conduct of an open-label sequential-group SAD study in subjects with clinically stable HCM (Compound 1-001) is also complete; single doses of up to 144 mg were administered. In addition, a double-blind, placebo-controlled, multiple ascending-dose (MAD) study (Compound 1-003) is being conducted in which healthy adult subjects have received multiple doses of Compound 1 up to 25 mg once daily (QD) for up to 28 days.
# In Study Compound 1-002, single doses from 1 mg to 48 mg were administered as an oral suspension to healthy men. […] Single doses of ≥12 mg of Compound 1 were associated with detectable reductions in LV contractility from baseline as assessed by 3 independent echocardiographic measures (left ventricular ejection fraction [LVEF], LV fractional shortening (LVFS), and LVOT velocity time integral [VTI]). At the highest dose studied in healthy subjects (48 mg), mean reduction in LVEF at any time point was −6% relative to baseline.
# [2] = system: subjects with clinically stable HCM; experiment: Study Compound 1-001 (MYK-461-001): SAD trial in HCM patients; assay type: in vivo, human; details: for LVOT Gradient Post-dose: upon provocation
# Experimental: as §1
# In Study MYK-461-001, single doses of up to 144 mg were administered to 15 subjects with HCM. […] In terms of causality assessment, there are no nonclinical or other clinical data to implicate Compound 1 in cardiac ion channel current modulation, or cardiac impulse generation or conduction. […] Other potential contributions to the event include chronic […] with metoprolol succinate 150 mg QD, and the observation that the subject inadvertently performed the Valsalva maneuver during the handgrip strength assessment immediately prior to the event.
# LVOT obstruction was resolved in patients following a single dose of Compound 1, as shown in the results in Table 2. […] Each patient was administered single 96 mg dose of Compound 1. Both patients' gradients were resolved following dosing.
# [3] = Pre-clinical acute or chronic administration, haemodynamics; assay type: in vivo
# [4] = Parts A and B of the phase 2 trial (PIONEER), pooled findings; assay type: in vivo, human; details: human, plasma, oral; read-out: concentrations associated with excessive pharmacological effect
# From the text: (§2) This is a phase 2 open-label pilot study to evaluate the efficacy, PK, PD, safety, and tolerability of Compound 1 in subjects with symptomatic HCM and LVOT obstruction. Approximately 10 adult subjects with symptomatic HCM, a resting LVOT gradient ≥30 mm Hg, and post-exercise peak LVOT gradient ≥50 mm Hg will be enrolled. The study will have a 12-week treatment phase and a 4-week washout phase (FIG. 3).
# (§3) This trial was similar to the trial described in Example 3, but will have several important differences. For example, subjects in the Phase 2-B trial will not be required to discontinue their β-blocker therapy, and the dose of Compound 1 will be reduced to 2 to 5 mg.
# (§4) Compound 1 concentrations were measured in human plasma using high pressure liquid chromatography (HPLC) coupled with tandem mass spectrometry (MS/MS). This method was used for Compound 1 bioanalysis in all clinical trials to date, and all clinical data has been collected using plasma. A brief description of the method follows.
# (§5) Liquid-liquid extraction and HPLC/MS/MS was used to determine the concentration of Compound 1 in human plasma. An aliquot of the extract was injected onto an HPLC instrument that is coupled with a triple quadrupole mass spectrometer (Sciex API5500). A Lux 3u Cellulose-4 HPLC column (150×2.0 mm) from […], was used to separate Compound 1, from interfering compounds that may be present in the sample extract. The internal standard was a multi-deuterated analog of Compound 1 to ensure that the internal standard used in the assay had similar chemical properties to the analyte but a different mass for selective detection. The peak area of the product ion of Compound 1 was measured against the peak area of the product ion of the internal standard for determination of concentration.
# [5] = system: obstructive HCM (oHCM) patients; experiment: as above; assay type: in vivo, human
# From the text: as §2, §3, §4, §5
structure (smiles),measurement,setting,value
"CC(C)n1c(=O)cc(N[C@@H](C)c2ccccc2)[nH]c1=O [Compound 1, (S)-3-Isopropyl-6-((1-phenylethyl)amino) pyrimidine-2, 4(1H,3H)-dione]",Responders %,[1]; 12 mg single dose cohort,50%
same,Responders n,[1]; 12 mg single dose cohort,3/6
same,Responders %,[1]; 24 mg single dose cohort,83%
same,Responders n,[1]; 24 mg single dose cohort,5/6
same,Responders %,[1]; 48 mg single dose cohort,100%
same,Responders n,[1]; 48 mg single dose cohort,6/6
same,mean reduction in LVEF at any time point relative to baseline,"[1]; 48 mg single dose, healthy subjects",−6%
same,single dose associated with detectable reductions in LV contractility from baseline,"[1]; 3 echocardiographic measures (LVEF, LVFS, LVOT VTI), healthy men",≥ 12 mg
same,changes in systolic blood pressure or heart rate,[1]; any dose level 1 mg to 48 mg,No changes in systolic blood pressure (BP) or heart rate (HR) were detected
same,incidence of treatment-emergent AEs versus dose,[1]; single doses 1 mg to 48 mg,did not appear to increase with dose
same,tolerability,"[1]; single doses 1 mg to 48 mg, oral suspension, healthy men","well tolerated, with no serious adverse events (SAEs), deaths, or withdrawals from study due to adverse events (AEs) reported"
same,Responders %,[2]; 48 mg single dose cohort,50%
same,Responders n,[2]; 48 mg single dose cohort,2/4
same,Responders %,[2]; 96 mg single dose cohort,83%
same,Responders n,[2]; 96 mg single dose cohort,5/6
same,Responders %,[2]; 144 mg single dose cohort,80%
same,Responders n,[2]; 144 mg single dose cohort,4/5
same,LVOT gradients following Valsalva after dosing,"[2]; 2 subjects, single 96 mg dose",< 10 mm Hg
same,LVOT Gradient % Decrease,"[2]; Patient 1, single 96 mg dose",(79%)
same,LVOT Gradient Post-dose,"[2]; Patient 1, single 96 mg dose, pre-dose 42",9 mmHg
same,LVOT Gradient % Decrease,"[2]; Patient 2, single 96 mg dose",(82%)
same,LVOT Gradient Post-dose,"[2]; Patient 2, single 96 mg dose, pre-dose 28",5 mmHg
same,proof of mechanism: LV contractility,"[2]; all subjects with HCM, single doses 48-144 mg",reduced LV contractility by at least 1 of 3 independent echocardiographic measures
same,number of adverse events (AEs),"[2]; human, in vivo",35
same,severity of adverse events,"[2]; human, in vivo",all mild to moderate
same,tolerability,"[2]; single doses of up to 144 mg, 15 subjects with HCM","well tolerated without deaths, withdrawals due to AEs, or dose-related treatment-emergent AEs, except for 1 of 5 subjects who received the 144 mg dose"
same,LVOT obstruction after a single dose,"[2]; two subjects with LVOT pressure gradient, single 96 mg dose",resolved
same,"myocardial contractility, LV end-diastolic dimensions, blood pressure",[3]; acute or chronic administration,"decreased myocardial contractility and increased LV end-diastolic dimensions while preserving systemic arterial blood pressure and, LV end-diastolic pressure"
same,end-diastolic pressures and end-diastolic stiffness,[3]; versus acute effects of other negative inotropes,preserves end-diastolic pressures as well as the estimated (linear) end-diastolic stiffness despite marked increases in preload (EDV)
same,concentration at 12 weeks,[4],> 1000 ng/mL
same,effects accompanying the gradient reduction,[5]; Parts A and B,"improvement in symptoms, pVO2 during exercise, a decrease in NT pro-BNP and improvement in echocardiographic measures of diastolic function"
same,diastolic function,"[5]; Parts A and B, Tables 9 and 10",diastolic improvement
same,tolerability of the therapeutic concentration range,[5]; associated with limited decrease in LVEF,well tolerate
same,compliance of the left ventricle,"[5]; increase in LVEDV with reduction in LV filling pressure (E/e′), emerging data, Cohorts A and B",improving compliance of the left ventricle
same,LVEF maintained with clinical improvement in oHCM (symptom improvement and peak VO2),[5]; plasma concentrations of 350 to 700 ng/mL,≥ 55%
same,LVOT gradient level reached,"[5]; plasma concentrations of 350 to 700 ng/mL, generally",< 30 mm Hg
